The term AUC(0-t) denotes exposure summed from dosing to a finite time, without extrapolation to infinity. As a reminder, the IC50 is the midpoint of a concentration-inhibition curve. A word on the AUC(0-inf): it is the area under the concentration-time curve extrapolated to infinity.

Calls of active or inactive are those of the source. No cut-off for these calls is given here. Some results are limits rather than exact numbers.

The source of these data is ChEMBL document CHEMBL4823252 (J Med Chem, 2021).

Series [1] in a line: Toxicity in mouse xenografted with human MOLM-13 cells assessed as induction of cytoplasmic condensation at 40 mg/kg, po administered for 20 days by hematoxylin and eosin staining assay. As to conditions: in vivo, 480 h, time 20 day. Type of series: organism-based. Background: A xenograft is tissue or cells of one species grown in another, often human tumour cells in immunodeficient mice.

The nature of series [2]: AUC (0 to last) in Sprague-Dawley rat at 1 mg/kg, iv. It counts as ADME, organism-based. Details: route intravenous, time 0 - last, dose 1 mg/kg. As to conditions: in vivo.
The target of series [3] is Receptor-type tyrosine-protein kinase FLT3 (Homo sapiens) (UniProt P36888). In words: Inhibition of FLT3 in human MV4-11 cells assessed as suppression of autophosphorylation at tyr589/591 residue at 10 uM incubated for 2 hrs by Western blot analysis. Further details: scale not given: the % may be the effect or the level left. It counts as cell-based. (In western blotting, separated proteins are transferred to a membrane and probed.)

Series [4] has the same target. The experiment in a line: Inhibition of FLT3 in human MOLM-13 cells assessed as reduction in STAT5 phosphorylation incubated for 2 hrs by Western blot analysis. Type of series: cell-based.
The test system of series [5] is MOLM-13. The experiment in a line: Induction of cell cycle arrest in human MOLM-13 cells assessed as accumulation at S phase at 100 nM incubated for 24 hrs by flow cytometry (reference value: 16.28%). Type of series: functional.
The test system of a further series is MDA-MB-231. The experiment in a line: Antiproliferative activity against human MDA-MB-231 cells measured after 72 hrs by CCK8 assay. Type of series: functional, cell-based. The following applies: MDA-MB-231, 72 h. (Tetrazolium dyes change colour on reduction, which living cells bring about.)
The test system of a further series is U-937. In words: Antiproliferative activity against human U-937 cells measured after 72 hrs by CCK8 assay. Type of series: functional, cell-based. As to conditions: U-937, 72 h.
The target in series [6] is Receptor-type tyrosine-protein kinase FLT3 (Homo sapiens) (UniProt P36888). The experiment in a line: Binding affinity to FLT3 (unknown origin) at 1000 nM relative to control.
A further series concerns HT-29. In words: Antiproliferative activity against human HT-29 cells measured after 72 hrs by CCK8 assay. It counts as functional, cell-based. As to conditions: HT-29, 72 h.
Series [7] relates to Receptor-type tyrosine-protein kinase FLT3 (Homo sapiens), P36888 [K663Q]. The experiment in a line: Binding affinity to FLT3 K663Q mutant (unknown origin) at 1000 nM relative to control.
In series [8] the test system is MOLM-13. The experiment in a line: Antiproliferative activity against human quizartinib-resistant MOLM-13 cells at 333 nM incubated for 72 hrs by CCK8 assay relative to control. It counts as functional.
A short description of series [9]: Toxicity in mouse xenografted with human MV4-11 cells assessed as effect on liver at 2.5 to 10 mg/kg, po administered for 16 days by hematoxylin and eosin staining assay. Type of series: organism-based. The following applies: in vivo, 384 h, dose 2.5-10 mg/kg, time 16 day.
For another series, the system named is HCT-116. The experiment in a line: Antiproliferative activity against human HCT116 cells measured after 72 hrs by CCK8 assay. It counts as functional, cell-based. As to conditions: HCT-116, 72 h.
A further series relates to MV4-11. The experiment in a line: Antitumor activity against human MV4-11 cells xenografted in po dosed mouse assessed as tumor growth inhibition administered for 20 days measured once every 2 days. It counts as functional, organism-based. The following applies: time 20.0 day.
For series [10], the system named is MOLM-13. In words: Induction of cell cycle arrest in human MOLM-13 cells assessed as accumulation at G2/M phase at 1 nM incubated for 24 hrs by flow cytometry (reference value: […]). It counts as functional.
The test system of series [11] is Receptor-type tyrosine-protein kinase FLT3 (Homo sapiens), P36888 [D835H]. The experiment in a line: Binding affinity to FLT3 D835H mutant (unknown origin) at 1000 nM relative to control.
Series [12] is described as follows: Toxicity in mouse xenografted with human MOLM-13 cells assessed as effect on lung at 10 to 40 mg/kg, po administered for 20 days by hematoxylin and eosin staining assay. Type of series: organism-based. The following applies: in vivo, 480 h, dose 10-40 mg/kg, time 20 day.
In series [13] the target is T1, Receptor-type tyrosine-protein kinase FLT3 (Homo sapiens, UniProt P36888).
T1 sequence (P36888 whole entry): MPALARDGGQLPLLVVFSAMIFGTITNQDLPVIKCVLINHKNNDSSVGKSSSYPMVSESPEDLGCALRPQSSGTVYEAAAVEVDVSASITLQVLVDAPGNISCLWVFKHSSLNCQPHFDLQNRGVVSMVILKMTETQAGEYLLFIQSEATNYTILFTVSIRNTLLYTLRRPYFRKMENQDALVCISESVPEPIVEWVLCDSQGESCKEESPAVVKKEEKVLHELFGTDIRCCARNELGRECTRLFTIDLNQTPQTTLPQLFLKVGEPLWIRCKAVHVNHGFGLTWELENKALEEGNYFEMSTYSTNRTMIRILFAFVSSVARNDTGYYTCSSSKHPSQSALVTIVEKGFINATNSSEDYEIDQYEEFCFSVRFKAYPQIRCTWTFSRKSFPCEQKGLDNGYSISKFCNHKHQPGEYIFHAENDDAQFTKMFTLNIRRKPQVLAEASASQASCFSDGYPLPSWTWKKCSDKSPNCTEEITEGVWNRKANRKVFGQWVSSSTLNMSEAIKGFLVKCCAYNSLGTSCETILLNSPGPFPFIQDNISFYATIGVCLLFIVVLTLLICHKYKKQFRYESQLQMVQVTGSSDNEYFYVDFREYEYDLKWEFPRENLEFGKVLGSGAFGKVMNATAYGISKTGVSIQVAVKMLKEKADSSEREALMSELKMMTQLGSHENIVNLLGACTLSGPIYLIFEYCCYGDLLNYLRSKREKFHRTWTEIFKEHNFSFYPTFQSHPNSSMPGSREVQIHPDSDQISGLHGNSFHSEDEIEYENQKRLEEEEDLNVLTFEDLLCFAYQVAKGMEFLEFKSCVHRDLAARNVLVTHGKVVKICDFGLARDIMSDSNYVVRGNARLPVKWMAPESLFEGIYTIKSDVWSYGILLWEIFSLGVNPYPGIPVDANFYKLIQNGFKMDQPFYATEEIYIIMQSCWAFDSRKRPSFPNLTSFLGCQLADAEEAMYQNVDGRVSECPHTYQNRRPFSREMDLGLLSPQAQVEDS
In words: Inhibition of FLT3 (unknown origin) incubated for 30 mins in presence of ATP by mobility shift assay.

The nature of series [14]: Toxicity in mouse xenografted with human MOLM-13 cells assessed as effect on kidney at 10 to 40 mg/kg, po administered for 20 days by hematoxylin and eosin staining assay. Type of series: organism-based. The following applies: in vivo, 480 h, dose 10-40 mg/kg, time 20 day.
Series [15] concerns MOLM-13. The experiment in a line: Antiproliferative activity against human sunitinib-resistant MOLM-13 cells at 12 nM incubated for 72 hrs by CCK8 assay relative to control. Type of series: functional.
A short description of series [16]: Toxicity in mouse xenografted with human MOLM-13 cells assessed as effect on heart at 10 to 40 mg/kg, po administered for 20 days by hematoxylin and eosin staining assay. Type of series: organism-based. The following applies: in vivo, 480 h, dose 10-40 mg/kg, time 20 day.
Series [17] deals with Mast/stem cell growth factor receptor Kit (Homo sapiens, UniProt P10721). In words: Inhibition of c-KIT (unknown origin) incubated for 30 mins in presence of ATP by mobility shift assay.
Sequence of Mast/stem cell growth factor receptor Kit (P10721 whole entry): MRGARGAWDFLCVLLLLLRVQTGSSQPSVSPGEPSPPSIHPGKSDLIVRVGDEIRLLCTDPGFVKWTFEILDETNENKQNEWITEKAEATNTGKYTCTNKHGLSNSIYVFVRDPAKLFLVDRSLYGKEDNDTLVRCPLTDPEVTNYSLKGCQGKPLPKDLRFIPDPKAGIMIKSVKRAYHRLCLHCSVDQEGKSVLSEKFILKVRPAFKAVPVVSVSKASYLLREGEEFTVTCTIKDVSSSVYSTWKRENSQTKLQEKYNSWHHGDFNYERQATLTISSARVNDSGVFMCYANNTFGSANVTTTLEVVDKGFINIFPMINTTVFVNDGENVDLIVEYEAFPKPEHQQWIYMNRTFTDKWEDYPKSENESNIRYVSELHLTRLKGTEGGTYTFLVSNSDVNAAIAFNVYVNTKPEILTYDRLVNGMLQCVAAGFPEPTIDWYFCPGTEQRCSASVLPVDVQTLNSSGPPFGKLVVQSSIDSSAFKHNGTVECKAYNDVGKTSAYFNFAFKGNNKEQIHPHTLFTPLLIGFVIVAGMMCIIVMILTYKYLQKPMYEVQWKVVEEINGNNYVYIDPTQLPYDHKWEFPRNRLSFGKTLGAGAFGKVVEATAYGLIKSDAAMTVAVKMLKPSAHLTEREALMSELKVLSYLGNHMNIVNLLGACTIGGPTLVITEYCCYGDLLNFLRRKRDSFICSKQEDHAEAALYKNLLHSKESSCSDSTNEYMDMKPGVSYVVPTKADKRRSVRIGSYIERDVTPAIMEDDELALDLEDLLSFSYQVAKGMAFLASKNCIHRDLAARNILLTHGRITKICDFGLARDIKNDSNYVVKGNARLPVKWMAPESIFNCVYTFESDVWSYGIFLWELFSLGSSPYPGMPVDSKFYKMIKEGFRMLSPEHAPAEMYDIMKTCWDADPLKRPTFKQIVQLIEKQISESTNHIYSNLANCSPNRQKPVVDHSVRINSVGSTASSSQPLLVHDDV
Series [18] concerns MOLM-13. In words: Antitumor activity against human MOLM-13 cells xenografted in po dosed mouse assessed as tumor growth inhibition administered for 20 days measured once every 2 days. As to conditions: time 20.0 day. It counts as functional, organism-based.
A short description of series [19]: AUC (0 to infinity) in Sprague-Dawley rat at 1 mg/kg, iv. It counts as ADME, organism-based. Details: route intravenous, time infinity, dose 1 mg/kg. The following applies: in vivo.
Series [20] concerns the target Receptor-type tyrosine-protein kinase FLT3 (Homo sapiens) (UniProt P36888). In words: Inhibition of FLT3 in human MOLM-13 cells assessed as reduction in ERK phosphorylation incubated for 2 hrs by Western blot analysis. Type of series: cell-based.

For `CCN(CC)CCNC(=O)c1c(C)[nH]c(/C=C2\C(=O)Nc3ccc(F)cc32)c1C` [SUNITINIB], the Activity result in [1] is given as “Toxic”.
Regarding `Cc1c(NC(=O)CCN2CCCC2)c[nH]c1/C=C1\C(=O)Nc2ccc(F)cc21`, the AUC(0-t) in series [2] stood at 2880 ng·h/mL. For the same compound, the Activity in series [3] is 100%; in series [4], “Dose-Dependent Effect”; in the series on MOLM-13 [5], 4.16%; in the series with MOLM-13 [8], 13.4%; in series [9], “Non-Toxic”; with MV4-11, “Dose-Dependent Effect”. For the same compound, the Activity with MOLM-13 [10] was 7.13%; in series [12] it was “Non-Toxic”; in series [14], “Non-Toxic”; in the series on MOLM-13 [15], -2.6%; in series [16], “Non-Toxic”; in the series with MOLM-13 [18] it was “Dose-Dependent Effect”. The Activity result in series [20] is “Dose-Dependent Effect”. Besides, the IC50 in the series on MDA-MB-231 is 1830 nM; in the series with U-937, 5260 nM; in the series on HT-29, 1540 nM; in the series with HCT-116, 3980 nM; in [13], 1.8 nM; in series [17], above 1000 nM. The result in series [6], in series [7] and in series [11] was Active. Moreover, in series [19], the AUC(0-inf) came out at 2970 ng·h/mL.
